Converted amounts (≈) assume the structure as drawn. Where two headings read alike, the source gives them in different places. Starred links: 1 amine or outer side, 2 acyl side, 3 side chain; linkers in the order of their positions; H or OH if unused. Positions of bridges follow the written chain, without caps; N, C: chain ends. Residues, ends and D or L forms follow the SMILES beside them. Groups on a side chain read outwards from the residue. *: point of attachment. C20 diacid = O=C(O)CCCCCCCCCCCCCCCCCCC(=O)*; C18 diacid = O=C(O)CCCCCCCCCCCCCCCCC(=O)*; γGlu = O=C(O)[C@H](CCC(=O)[*:2])N[*:1]; AEEA = NCCOCCOCC(=O)O
Legend:
[1] = target: T1, human amylin receptor (amylin 3(a) receptor: human calcitonin receptor + RAMP-3) (Homo sapiens, UniProt O60896+P30988); experiment: Assay (II)a functional CRE-luciferase assay, human amylin receptor; type: cell-based
T1 construct: expressed in transfected cells; host or cells: BHK570
T1 sequence (P30988 25-474): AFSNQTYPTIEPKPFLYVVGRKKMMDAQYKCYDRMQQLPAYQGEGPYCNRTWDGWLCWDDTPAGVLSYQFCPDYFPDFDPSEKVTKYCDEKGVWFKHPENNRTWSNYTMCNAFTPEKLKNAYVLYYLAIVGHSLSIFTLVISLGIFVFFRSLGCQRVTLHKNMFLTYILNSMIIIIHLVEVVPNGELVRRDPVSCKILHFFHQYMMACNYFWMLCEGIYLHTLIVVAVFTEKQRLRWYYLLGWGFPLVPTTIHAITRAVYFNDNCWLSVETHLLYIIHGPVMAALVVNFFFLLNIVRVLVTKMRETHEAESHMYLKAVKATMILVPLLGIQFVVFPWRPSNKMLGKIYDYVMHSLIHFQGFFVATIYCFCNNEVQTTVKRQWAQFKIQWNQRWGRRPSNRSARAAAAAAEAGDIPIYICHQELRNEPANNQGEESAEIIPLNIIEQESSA
T1 sequence (O60896 24-148 partner): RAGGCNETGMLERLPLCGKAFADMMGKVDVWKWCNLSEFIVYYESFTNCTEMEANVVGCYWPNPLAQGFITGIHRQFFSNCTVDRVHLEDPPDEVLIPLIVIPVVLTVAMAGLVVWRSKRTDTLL

[2] = target: T2, human calcitonin receptor (Homo sapiens, UniProt P30988); experiment: Assay (II)a functional CRE-luciferase assay, human calcitonin receptor; type: cell-based; details: Table 7; human calcitonin (CTa) receptor
T2 construct: expressed in transfected cells; host or cells: BHK570
T2 sequence (P30988 25-474): T1 sequence (P30988 25-474)

[3] = Assay (III) ThT fibrillation assay for physical stability; type: physicochemical
Summary of the method: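 Freshly prepared formulations, pH-adjusted, with 1 μM ThT; four or eight replicates incubated at 37 °C under 960 rpm orbital shaking. Fluorescence (ex 444/em 485 nm) read every 20 min; […]. Peptide concentration measured by RP-HPLC before and after the run.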

[4] = Assay (IV) determination of solubility; type: physicochemical
Summary of the method: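 Solubility was profiled across pH 3.0–8.0 after 18 hours at room temperature: a ~500 nmol/ml aqueous polypeptide solution was diluted 1:1 into 100 mM glycylglycine or bistrispropane buffers. After centrifugation, HPLC gave the dissolved concentration.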

[5] = Table 2, BHK amylin 3(a)-receptor/CRE-luc cells
[6] = bistrispropane buffer, pH 6, pH 6.0, read-out: Solubility pH 6.0
[7] = bistrispropane buffer, pH 6.5, pH 6.5, read-out: Solubility pH 6.5
[8] = bistrispropane buffer, pH 7, pH 7.0, read-out: Solubility pH 7.0
[9] = bistrispropane buffer, pH 7.5, pH 7.5, read-out: Solubility pH 7.5
[10] = bistrispropane buffer, pH 8, pH 8.0, read-out: Solubility pH 8.0
[11] = glycylglycine buffer, pH 3, pH 3.0, read-out: Solubility pH 3.0
[12] = glycylglycine buffer, pH 4, pH 4.0, 18 hours at room temperature, Table 2, read-out: Solubility pH 4.0
[13] = glycylglycine buffer, pH 4, pH 4.0, read-out: Solubility pH 4.0
[14] = glycylglycine buffer, pH 5, pH 5.0, read-out: Solubility pH 5.0
[15] = bistrispropane buffer, pH 7, pH 7.0, 18 hours at room temperature, Table 3, read-out: Solubility pH 7.0

| EC50 [1, 5] [nM] | EC50 [2] [nM] | ThT pH 4.0 lag time ([3]; ThT fibrillation assay) [h] | ThT pH 4.0 lag time (h) ([3]; ThT fibrillation assay) | solubility at 18 h [4, 6] [µM] | solubility at 18 h [4, 7] [µM] | solubility at 18 h [4, 8] [µM] | solubility at 18 h [4, 9] [µM] | solubility at 18 h [4, 10] [µM] | solubility at 18 h [4, 11] [µM] | solubility at 18 h [4, 12] [µM] | solubility at 18 h [4, 13] [µM] | solubility at 18 h [4, 14] [µM] | EC50 ([1]; Table 6, human amylin receptor) [nM] | solubility at 18 h [4, 15] [µM] | ThT pH 4.0 lag time ([3]; Table 8) [h] | solubility at 18 h ([4]; bistrispropane buffer, pH 7, pH 7.0, Table 8, read-out: Solubility pH 7.0) [µM] | Molecule |
| --- | --- | --- | --- | --- | --- | --- | --- | --- | --- | --- | --- | --- | --- | --- | --- | --- | --- |
| 0.101 | 0.615 | >45 | >45 | > 200 | 158 (≈ 754 µg/mL) | 6 (≈ 28.6 µg/mL) | 2 (≈ 9.54 µg/mL) | 24 (≈ 115 µg/mL) | > 200 | > 200 | > 200 | > 200 | – | – | – | – | CC[C@H](C)[C@H](NC(=O)[C@@H]1CCCN1C(=O)CNC(=O)[C@H](Cc1ccccc1)NC(=O)[C@H](CC(N)=O)NC(=O)[C@H](CC(N)=O)NC(=O)[C@H](CO)NC(=O)[C@H](CO)NC(=O)[C@H](Cc1c[nH]cn1)NC(=O)[C@H](CCCNC(=N)N)NC(=O)[C@H](CC(C)C)NC(=O)[C@H](Cc1ccccc1)NC(=O)[C@H](CCC(=O)O)NC(=O)[C@H](C)NC(=O)[C@H](CC(C)C)NC(=O)[C@H](CCCNC(=N)N)NC(=O)[C@H](CCC(N)=O)NC(=O)[C@@H](NC(=O)[C@H](C)NC(=O)[C@@H]1CSSC[C@H](NC(=O)[C@H](CCCCN)NC(=O)[C@H](Cc2c[nH]cn2)NC(=O)[C@H](Cc2c[nH]cn2)NC(=O)CC[C@H](NC(=O)CCCCCCCCCCCCCCCCCCC(=O)O)C(=O)O)C(=O)N[C@@H](CC(N)=O)C(=O)N[C@@H]([C@@H](C)O)C(=O)N[C@@H](C)C(=O)N[C@@H]([C@@H](C)O)C(=O)N1)[C@@H](C)O)C(=O)N[C@@H](CC(C)C)C(=O)N1CCC[C@H]1C(=O)N1CCC[C@H]1C(=O)N[C@H](C(=O)N[C@@H](CC(N)=O)C(=O)N[C@H](C(=O)NCC(=O)N[C@@H](CO)C(=O)N[C@@H](Cc1c[nH]cn1)C(=O)N[C@H](C(=O)N[C@@H](Cc1ccc(O)cc1)C(N)=O)[C@@H](C)O)C(C)C)[C@@H](C)O [Example 69, N-alpha-[(S)-4-Carboxy-4-(19-carboxynonadecanoylamino)butyryl]-His-His-[Glu14,Arg17,His35]-pramlintide] ({C20 diacid-γGlu}-HHKCNTATCATQRLAEFLRHSSNNFGPILPPTNVGSHTY-NH2; disulfide 4-9 (inferred)) |
| – | 0.432 | – | 0 | 6 | 4 | 1 | 25 | 26 | > 200 | – | 84 | 52 | 0.253 | – | – | – | {C20 diacid-γGlu}-SSGSSGCNTATCATQRLAEFLHHSSNNFGPILPPTNVGSNTY-NH2 (disulfide 7-12 (inferred)) [Example 39, N-alpha-[(S)-4-Carboxy-4-(19-carboxynonadecanoylamino)butyryl]-Ser-Ser-Gly-Ser-Ser-[Gly1,Glu14,His17]-pramlintide] |
| 0.089 | 0.101 | – | 10.3 | 168 (≈ 787 µg/mL) | 130 (≈ 609 µg/mL) | 126 (≈ 590 µg/mL) | 165 (≈ 773 µg/mL) | > 200 | > 200 | > 200 | > 200 | > 200 | – | 126 (≈ 590 µg/mL) | – | – | CC[C@H](C)[C@H](NC(=O)[C@H](CCCCNC(=O)COCCOCCNC(=O)COCCOCCNC(=O)CC[C@H](NC(=O)CCCCCCCCCCCCCCCCC(=O)O)C(=O)O)NC(=O)CNC(=O)[C@H](Cc1ccccc1)NC(=O)[C@H](CC(N)=O)NC(=O)[C@H](CO)NC(=O)[C@H](CO)NC(=O)[C@H](CO)NC(=O)[C@H](Cc1c[nH]cn1)NC(=O)[C@@H](NC(=O)[C@H](CC(C)C)NC(=O)[C@H](Cc1ccccc1)NC(=O)[C@H](CCC(=O)O)NC(=O)[C@H](C)NC(=O)[C@H](CC(C)C)NC(=O)[C@H](CCCNC(=N)N)NC(=O)[C@H](CCC(N)=O)NC(=O)[C@@H](NC(=O)[C@H](C)NC(=O)[C@@H]1CSSC[C@H](NC(=O)[C@@H](N)CCCCN)C(=O)N[C@@H](CC(N)=O)C(=O)N[C@@H]([C@@H](C)O)C(=O)N[C@@H](C)C(=O)N[C@@H]([C@@H](C)O)C(=O)N1)[C@@H](C)O)C(C)C)C(=O)N[C@@H](CC(C)C)C(=O)N1CCC[C@H]1C(=O)N1CCC[C@H]1C(=O)N[C@H](C(=O)N[C@@H](CC(N)=O)C(=O)N[C@H](C(=O)NCC(=O)N[C@@H](CO)C(=O)N[C@@H](CC(N)=O)C(=O)N[C@H](C(=O)N[C@@H](Cc1ccc(O)cc1)C(N)=O)[C@@H](C)O)C(C)C)[C@@H](C)O [Example 72, N-epsilon25-[2-(2-{2-[2-(2-{2-[(S)-4-Carboxy-4-(17-carboxyheptadecanoylamino)butyrylamino]ethoxy}ethoxy)acetylamino]ethoxy}ethoxy)acetyl]-[Glu14,Ser21,Lys25]-pramlintide] (H-KCNTATCATQRLAEFLVHSSSNFGK([AEEA-AEEA-γGlu-C18 diacid])ILPPTNVGSNTY-NH2; disulfide 2-7 (inferred); N-terminus assumed) |
| 0.365 | 0.286 | 28 | 28 | > 200 | 193 (≈ 840 µg/mL) | > 200 | > 200 | > 200 | > 200 | > 200 | > 200 | > 200 | – | > 200 | 28 | > 200 | CC[C@H](C)[C@H](NC(=O)[C@@H]1CCCN1C(=O)CNC(=O)[C@H](Cc1ccccc1)NC(=O)[C@H](CC(N)=O)NC(=O)[C@H](CC(N)=O)NC(=O)[C@H](CO)NC(=O)[C@H](CO)NC(=O)[C@H](Cc1c[nH]cn1)NC(=O)[C@H](Cc1c[nH]cn1)NC(=O)[C@H](CC(C)C)NC(=O)[C@H](Cc1ccccc1)NC(=O)[C@H](CCC(=O)O)NC(=O)[C@H](C)NC(=O)[C@H](CC(C)C)NC(=O)[C@H](CCCNC(=N)N)NC(=O)[C@H](CCC(N)=O)NC(=O)[C@@H](NC(=O)[C@H](C)NC(=O)[C@@H]1CSSC[C@H](NC(=O)CC[C@H](NC(=O)CCCCCCCCCCCCCCCCCCC(=O)O)C(=O)O)C(=O)N[C@@H](CC(N)=O)C(=O)N[C@@H]([C@@H](C)O)C(=O)N[C@@H](C)C(=O)N[C@@H]([C@@H](C)O)C(=O)N1)[C@@H](C)O)C(=O)N[C@@H](CC(C)C)C(=O)N1CCC[C@H]1C(=O)N1CCC[C@H]1C(=O)N[C@H](C(=O)N[C@@H](CC(N)=O)C(=O)N[C@H](C(=O)NCC(=O)N[C@@H](CO)C(=O)N[C@@H](Cc1c[nH]cn1)C(=O)N[C@H](C(=O)N[C@@H](Cc1ccc(O)cc1)C(N)=O)[C@@H](C)O)C(C)C)[C@@H](C)O [Example 75, N-alpha-[(S)-4-Carboxy-4-(19-carboxynonadecanoylamino)butyryl]-[des1,Glu14,His17,His35]-pramlintide] ({C20 diacid-γGlu}-CNTATCATQRLAEFLHHSSNNFGPILPPTNVGSHTY-NH2; disulfide 1-6 (inferred)) |

Source: patent US8722849B2, “Polypeptides” (Novo Nordisk A/S, priority 2011, dated 2014)
